Source: patent publication US6713455B2, “6-O-carbamate-11,12-lacto-ketolide antimicrobials” (Ortho-McNeil Pharmaceutical, Inc., priority 2001, dated 2004)
Values after ≈ are worked out from the molar mass of the structure shown.

Columns and labels:
Test in all cases: MIC, microdilution broth method (NCCLS)
Format in all cases: cell-based
E. coli OC2605 = settings: 35° C., 16-20 hours; for MIC: Escherichia coli
Protocol: (§1) Minimal inhibitory concentration (MIC) has been an indicator of in vitro antibacterial activity widely used in the art. The in vitro antimicrobial activity of the compounds was determined by the microdilution broth method following the test method from the National Committee for Clinical Laboratory Standards (NCCLS). This method is described in the NCCLS Document M7-A4, Vol.17, No.2, “Methods for Dilution Antimicrobial Susceptibility Test for Bacteria that Grow Aerobically—Fourth Edition”, which is incorporated herein by reference.
(§2) In this method two-fold serial dilutions of drug in cation adjusted Mueller-Hinton broth are added to wells in microdilution trays. The test organisms are prepared by adjusting the turbidity of actively growing broth cultures so that the final concentration of test organism after it is added to the wells is approximately 5×10^4 CFU/well.
(§3) Following inoculation of the microdilution trays, the trays are incubated at 35° C. for 16-20 hours and then read. […] The amount of growth in the wells containing the test compound is compared with the amount of growth in the growth-control wells (no test compound) used in each tray. As set forth in Table 1, compounds of the present invention were tested against a variety of Gram positive and Gram negative pathogenic bacteria resulting in a range of activities depending on the organism tested.

E. faecalis ATCC29212 = settings: 35° C., 16-20 hours; for MIC: Enterococcus faecalis
Protocol: as §1, §2, §3

H. influenzae ATCC49247 = settings: 35° C., 16-20 hours; for MIC: Haemophilus influenzae
Protocol: as §1, §2, §3

S. aureus ATCC29213 = settings: 35° C., 16-20 hours; for MIC: Staphylococcus aureus
Protocol: as §1, §2, §3

S. pneumoniae ATCC49619 = settings: 35° C., 16-20 hours
Protocol: as §1, §2, §3

## CCC1OC(=O)C(C)C(=O)C(C)C(OC2OC(C)CC(N(C)C)C2O)C(C)(OC(=O)N(CC=Cc2cncc(-c3ccccn3)c2)CC=Cc2cncc(-c3ccccn3)c2)CC(C)C(=O)C(C)C2CC(=O)OC12C (stereo not shown) [Compound 12]
E. coli OC2605
  MIC (μg/mL) A: >16 µg/mL
E. faecalis ATCC29212
  MIC (μg/mL) C: 0.5 µg/mL (≈ 0.486 µM)
H. influenzae ATCC49247
  MIC (μg/mL) E: 16 µg/mL (≈ 15.5 µM)
S. aureus ATCC29213
  MIC (μg/mL) B: 2 µg/mL (≈ 1.94 µM)
S. pneumoniae ATCC49619
  MIC (μg/mL) D: 0.12 µg/mL (≈ 0.117 µM)

## CCC1OC(=O)C(C)C(=O)C(C)C(OC2OC(C)CC(N(C)C)C2O)C(C)(OC(=O)NCC=Cc2cccc(-c3ccccn3)c2)CC(C)C(=O)C(C)C2CC(=O)OC12C (stereo not shown) [Compound 13]
E. coli OC2605
  MIC (μg/mL) A: >16 µg/mL
E. faecalis ATCC29212
  MIC (μg/mL) C: 0.25 µg/mL (≈ 0.3 µM)
H. influenzae ATCC49247
  MIC (μg/mL) E: 4 µg/mL (≈ 4.8 µM)
S. aureus ATCC29213
  MIC (μg/mL) B: 1 µg/mL (≈ 1.2 µM)
S. pneumoniae ATCC49619
  MIC (μg/mL) D: 0.06 µg/mL (≈ 0.0719 µM)

## CCC1OC(=O)C(C)C(=O)C(C)C(OC2OC(C)CC(N(C)C)C2O)C(C)(OC(=O)NCC=Cc2cccc(-c3cccnc3)c2)CC(C)C(=O)C(C)C2CC(=O)OC12C (stereo not shown) [Compound 14]
E. coli OC2605
  MIC (μg/mL) A: >16 µg/mL
E. faecalis ATCC29212
  MIC (μg/mL) C: 0.5 µg/mL (≈ 0.6 µM)
H. influenzae ATCC49247
  MIC (μg/mL) E: 8 µg/mL (≈ 9.59 µM)
S. aureus ATCC29213
  MIC (μg/mL) B: 2 µg/mL (≈ 2.4 µM)
S. pneumoniae ATCC49619
  MIC (μg/mL) D: 0.12 µg/mL (≈ 0.144 µM)

## CCC1OC(=O)C(C)C(=O)C(C)C(OC2OC(C)CC(N(C)C)C2O)C(C)(OC(=O)NCC=Cc2ccc(-c3ccccn3)cc2)CC(C)C(=O)C(C)C2CC(=O)OC12C (stereo not shown) [Compound 15]
E. coli OC2605
  MIC (μg/mL) A: >16 µg/mL
E. faecalis ATCC29212
  MIC (μg/mL) C: 0.25 µg/mL (≈ 0.3 µM)
H. influenzae ATCC49247
  MIC (μg/mL) E: 8 µg/mL (≈ 9.59 µM)
S. aureus ATCC29213
  MIC (μg/mL) B: 1 µg/mL (≈ 1.2 µM)
S. pneumoniae ATCC49619
  MIC (μg/mL) D: 0.12 µg/mL (≈ 0.144 µM)

## CC[C@H]1OC(=O)[C@H](C)C(=O)[C@H](C)[C@@H](O[C@@H]2O[C@H](C)C[C@H](N(C)C)[C@H]2O)[C@](C)(OC(=O)NC/C=C/c2ccc(-n3cnnc3)cc2)C[C@@H](C)C(=O)C(C)[C@H]2CC(=O)O[C@@]21C (stereo partly shown) [Compound 16]
E. coli OC2605
  MIC (μg/mL) A: 16 µg/mL (≈ 19.4 µM)
E. faecalis ATCC29212
  MIC (μg/mL) C: 0.25 µg/mL (≈ 0.303 µM)
H. influenzae ATCC49247
  MIC (μg/mL) E: 4 µg/mL (≈ 4.85 µM)
S. aureus ATCC29213
  MIC (μg/mL) B: 0.5 µg/mL (≈ 0.607 µM)
S. pneumoniae ATCC49619
  MIC (μg/mL) D: 0.06 µg/mL (≈ 0.0728 µM)

## CC[C@H]1OC(=O)[C@H](C)C(=O)[C@H](C)[C@@H](OC2O[C@H](C)C[C@H](N(C)C)[C@H]2O)[C@](C)(OC(=O)NC/C=C/c2cn(-c3cnccn3)cn2)C[C@@H](C)C(=O)C(C)C2CC(=O)O[C@@]21C (stereo partly shown) [Compound 17]
E. coli OC2605
  MIC: > 16 µg/mL
E. faecalis ATCC29212
  MIC: 0.12 µg/mL (≈ 0.145 µM)
H. influenzae ATCC49247
  MIC: 4 µg/mL (≈ 4.85 µM)
S. aureus ATCC29213
  MIC: 0.5 µg/mL (≈ 0.606 µM)
S. pneumoniae ATCC49619; Streptococcus pneumoniae
  MIC: 0.06 µg/mL (≈ 0.0727 µM)

## CCC1OC(=O)C(C)C(=O)C(C)C(OC2OC(C)CC(N(C)C)C2O)C(C)(OC(=O)NCC#Cc2cccnc2)CC(C)C(=O)C(C)C2CC(=O)OC12C (stereo not shown) [Compound 18]
E. coli OC2605
  MIC (μg/mL) A: >16 µg/mL
E. faecalis ATCC29212
  MIC (μg/mL) C: 0.5 µg/mL (≈ 0.661 µM)
H. influenzae ATCC49247
  MIC (μg/mL) E: 8 µg/mL (≈ 10.6 µM)
S. aureus ATCC29213
  MIC (μg/mL) B: 2 µg/mL (≈ 2.65 µM)
S. pneumoniae ATCC49619
  MIC (μg/mL) D: 0.12 µg/mL (≈ 0.159 µM)

## CCC1OC(=O)C(C)C(=O)C(C)C(OC2OC(C)CC(N(C)C)C2O)C(C)(OC(=O)NCc2ccccc2)CC(C)C(=O)C(C)C2CC(=O)OC12C (stereo not shown) [Compound 19]
E. coli OC2605
  MIC (μg/mL) A: >16 µg/mL
E. faecalis ATCC29212
  MIC (μg/mL) C: 1 µg/mL (≈ 1.37 µM)
H. influenzae ATCC49247
  MIC (μg/mL) E: >16 µg/mL
S. aureus ATCC29213
  MIC (μg/mL) B: 16 µg/mL (≈ 21.9 µM)
S. pneumoniae ATCC49619
  MIC (μg/mL) D: 0.25 µg/mL (≈ 0.342 µM)

## CCC1OC(=O)C(C)C(=O)C(C)C(OC2OC(C)CC(N(C)C)C2O)C(C)(OC(=O)NCc2ccc(Br)cc2)CC(C)C(=O)C(C)C2CC(=O)OC12C (stereo not shown) [Compound 20]
E. coli OC2605
  MIC (μg/mL) A: >16 µg/mL
E. faecalis ATCC29212
  MIC (μg/mL) C: 0.5 µg/mL (≈ 0.617 µM)
H. influenzae ATCC49247
  MIC (μg/mL) E: 16 µg/mL (≈ 19.8 µM)
S. aureus ATCC29213
  MIC (μg/mL) B: 2 µg/mL (≈ 2.47 µM)
S. pneumoniae ATCC49619
  MIC (μg/mL) D: 0.12 µg/mL (≈ 0.148 µM)

## CC[C@H]1OC(=O)[C@H](C)C(=O)[C@H](C)[C@@H](OC2O[C@H](C)C[C@H](N(C)C)[C@H]2O)[C@](C)(OC(=O)NC/C=C/c2cncc3ccccc23)C[C@@H](C)C(=O)C(C)C2CC(=O)O[C@@]21C (stereo partly shown) [Compound 30]
E. coli OC2605
  MIC: 16 µg/mL (≈ 19.8 µM)
E. faecalis ATCC29212
  MIC: 0.12 µg/mL (≈ 0.149 µM)
H. influenzae ATCC49247
  MIC: 2 µg/mL (≈ 2.48 µM)
S. aureus ATCC29213
  MIC: 0.25 µg/mL (≈ 0.309 µM)
